What was measured:
DGKζ = DGKζ (Homo sapiens (Human), UniProt Q13574); assay: In vitro DGKζ inhibition assay (ADP-Glo); assay type: biochemical; conditions: His-tagged human recombinant enzyme, 0.4 nM DGK, 30 μM ATP, 20 μM DLG, 90 minute incubation
Outline: (§1)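 His-tagged human DGKα (0.1 nM, 50 μM ATP) or DGKζ (0.4 nM, 30 μM ATP), each with 20 μM DLG, in Tris pH 7.5 buffer with CHAPS, Mg2+, Ca2+.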

DGKα = DGKα (Homo sapiens (Human), UniProt P23743); assay: In vitro DGKα inhibition assay (ADP-Glo); assay type: biochemical; conditions: His-tagged human recombinant enzyme, 0.1 nM DGKα, 50 μM ATP, 20 μM DLG, 90 minute incubation
Outline: as §1

Chain of DGKα (P23743 whole entry): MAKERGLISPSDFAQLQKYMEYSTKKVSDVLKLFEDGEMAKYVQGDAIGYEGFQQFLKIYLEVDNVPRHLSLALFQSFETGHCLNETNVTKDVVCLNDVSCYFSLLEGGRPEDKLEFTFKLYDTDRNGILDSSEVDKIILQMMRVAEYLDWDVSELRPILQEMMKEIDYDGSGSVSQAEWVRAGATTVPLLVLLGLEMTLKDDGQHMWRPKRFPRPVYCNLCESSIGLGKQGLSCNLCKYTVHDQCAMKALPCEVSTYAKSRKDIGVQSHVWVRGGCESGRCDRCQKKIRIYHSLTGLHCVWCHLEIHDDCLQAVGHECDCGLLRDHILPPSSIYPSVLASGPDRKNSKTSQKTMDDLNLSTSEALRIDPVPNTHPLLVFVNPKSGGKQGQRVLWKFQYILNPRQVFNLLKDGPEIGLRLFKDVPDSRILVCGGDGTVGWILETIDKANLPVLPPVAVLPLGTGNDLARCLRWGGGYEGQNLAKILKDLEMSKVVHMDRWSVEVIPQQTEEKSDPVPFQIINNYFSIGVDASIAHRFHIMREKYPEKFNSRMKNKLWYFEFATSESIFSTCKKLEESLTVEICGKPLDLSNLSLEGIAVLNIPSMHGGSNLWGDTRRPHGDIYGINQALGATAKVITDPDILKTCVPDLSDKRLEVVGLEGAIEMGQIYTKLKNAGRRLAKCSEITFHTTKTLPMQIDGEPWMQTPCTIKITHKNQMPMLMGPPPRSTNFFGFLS
Chain of DGKζ (Q13574 whole entry): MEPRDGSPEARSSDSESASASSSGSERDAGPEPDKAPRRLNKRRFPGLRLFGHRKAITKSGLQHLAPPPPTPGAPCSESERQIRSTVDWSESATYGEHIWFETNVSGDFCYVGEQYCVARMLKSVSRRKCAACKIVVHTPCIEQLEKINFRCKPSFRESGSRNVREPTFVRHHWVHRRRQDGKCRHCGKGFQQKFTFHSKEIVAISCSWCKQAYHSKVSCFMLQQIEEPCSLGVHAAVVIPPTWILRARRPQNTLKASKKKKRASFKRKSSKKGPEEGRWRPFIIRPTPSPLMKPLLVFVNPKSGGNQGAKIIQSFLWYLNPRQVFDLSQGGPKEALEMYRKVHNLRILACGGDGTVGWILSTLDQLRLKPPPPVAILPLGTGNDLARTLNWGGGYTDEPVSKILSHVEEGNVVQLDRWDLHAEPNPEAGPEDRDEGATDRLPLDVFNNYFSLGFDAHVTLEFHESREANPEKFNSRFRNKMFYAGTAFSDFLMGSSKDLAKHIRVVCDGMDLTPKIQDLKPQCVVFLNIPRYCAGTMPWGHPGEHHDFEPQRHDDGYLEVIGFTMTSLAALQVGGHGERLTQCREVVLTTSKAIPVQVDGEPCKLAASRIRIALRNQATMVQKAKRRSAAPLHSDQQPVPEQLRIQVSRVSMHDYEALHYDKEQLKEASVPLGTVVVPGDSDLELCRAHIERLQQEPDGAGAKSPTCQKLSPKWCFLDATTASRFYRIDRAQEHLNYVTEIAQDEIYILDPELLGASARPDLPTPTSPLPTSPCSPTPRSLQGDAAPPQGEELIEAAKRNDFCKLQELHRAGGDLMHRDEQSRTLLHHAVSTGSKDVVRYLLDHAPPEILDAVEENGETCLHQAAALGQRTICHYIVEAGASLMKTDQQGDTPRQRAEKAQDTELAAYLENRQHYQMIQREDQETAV

SMILES	IC50 (DGKζ) [nM]	IC50 (DGKα) [nM]
Cc1nc2c(N3C[C@@H](C)N(C(c4ccc(C(F)(F)F)cc4)C4CCC(F)(F)CC4)C[C@@H]3C)nc3nncn3c2n1C[C@@H]1CCCO1 (stereo partly drawn) [Example 117, 4-((2S,5R)-4-((4,4-Difluorocyclohexyl)(4-(trifluoromethyl)phenyl)methyl)-2,5-dimethylpiperazin-1-yl)-2-methyl-1-(((S)-tetrahydrofuran-2-yl)methyl)-1H-[1,2,4]triazolo[3,4-b]purine]	≤ 20	≤ 20
CC[C@@H]1CN(c2nc3nncn3c3c2nc(C)n3C[C@@H]2CCCO2)[C@@H](C)CN1C(c1ccc(F)cc1)c1ccc(F)cc1 [Example 20, 4-((2S,5R)-4-(Bis(4-fluorophenyl)methyl)-5-ethyl-2-methylpiperazin-1-yl)-2-methyl-1-(((S)-tetrahydrofuran-2-yl)methyl)-1H-[1,2,4]triazolo[3,4-b]purine]	≤ 20	≤ 20
Cc1nc2c(N3C[C@@H](C)N([C@@H](c4cccc(C(F)(F)F)c4)C(C)C)C[C@@H]3C)nc3nncn3c2n1C[C@@H]1CCCO1 [Example 70, 4-((2S,5R)-2,5-dimethyl-4-((R)-2-methyl-1-(3-(trifluoromethyl)phenyl)propyl)piperazin-1-yl)-2-methyl-1-(((S)-tetrahydrofuran-2-yl)methyl)-1H-[1,2,4]triazolo[3,4-b]purine]	≤ 20	≤ 20
COc1ccc([C@H](c2ccc(C(F)F)cc2)N2C[C@H](C)N(c3nc4nncn4c4c3nc(C)n4C[C@@H]3CCCO3)C[C@H]2C)cc1 [Example 92, 4-((2S,5R)-4-((4-(Difluoromethyl)phenyl)(4-methoxyphenyl)methyl)-2,5-dimethylpiperazin-1-yl)-2-methyl-1-(((S)-tetrahydrofuran-2-yl)methyl)-1H-[1,2,4]triazolo[3,4-b]purine]	≤ 20	≤ 20
Cc1nc2c(N3C[C@@H](C)N(C(c4ccc(F)c(C(F)F)c4)C4CC(F)(F)C4)C[C@@H]3C)nc3nncn3c2n1C[C@@H]1CCCO1 (stereo partly drawn) [Example 54, 4-((2S,5R)-4-((3,3-Difluorocyclobutyl)(3-(difluoromethyl)-4-fluorophenyl)methyl)-2,5-dimethylpiperazin-1-yl)-2-methyl-1-(((S)-tetrahydrofuran-2-yl)methyl)-1H-[1,2,4]triazolo[3,4-b]purine]	≤ 20	≤ 20
C[C@@H]1CN(c2nc3nncn3c3c2ncn3CC2CC2)[C@@H](C)CN1[C@H](c1ccc(F)cc1)c1ccc(OC(F)(F)F)cn1 [Example 25, 1-(cyclopropylmethyl)-4-((2S,5R)-4-((R)-(4-fluorophenyl)(5-(trifluoromethoxy)pyridin-2-yl)methyl)-2,5-dimethylpiperazin-1-yl)-1H-[1,2,4]triazolo[3,4-b]purine]	20 to 200	≤ 20
Cc1nc2c(N3C[C@@H](C)N(C(c4ccc(F)c(Br)c4)C4CC(F)(F)C4)C[C@@H]3C)nc3nncn3c2n1C[C@@H]1CCCO1 (stereo partly drawn) [Example 62, 4-((2S,5R)-4-((3-Bromo-4-fluorophenyl)(3,3-difluorocyclobutyl)methyl)-2,5-dimethylpiperazin-1-yl)-2-methyl-1-(((S)-tetrahydrofuran-2-yl)methyl)-1H-[1,2,4]triazolo[3,4-b]purine]	≤ 20	≤ 20
Cc1nc2c(N3C[C@@H](C)N([C@@H](c4ccc(F)c(Cl)c4)C(C)C)C[C@@H]3C)nc3nncn3c2n1C[C@@H]1CCCO1 (single isomer, unassigned) [Example 87]	≤ 20	≤ 20
C[C@@H]1CN(c2nc3nncn3c3c2ncn3CCN(C)C)[C@@H](C)CN1C(c1ccc(Cl)cc1)c1ccc(Cl)cc1 [Example 107, 2-(4-((2S,5R)-4-(Bis(4-chlorophenyl)methyl)-2,5-dimethylpiperazin-1-yl)-1H-[1,2,4]triazolo[3,4-b]purin-1-yl)-N,N-dimethylethan-1-amine]	≤ 20	≤ 20
CC[C@H]1CN(C(c2ccc(F)cc2)c2ccc(F)cc2)[C@H](CC)CN1c1nc2nncn2c2c1nnn2C[C@H]1CCCO1 [Example 33, 4-((2S,5R)-4-(Bis(4-fluorophenyl)methyl)-2,5-diethylpiperazin-1-yl)-1-(((R)-tetrahydrofuran-2-yl)methyl)-1H-[1,2,3]triazolo[4,5-e][1,2,4]triazolo[4,3-a]pyrimidine]	≤ 20	≤ 20
Cc1nc2c(N3C[C@@H](C)N([C@@H](c4ccc(OC(F)(F)F)cc4)C(C)C)C[C@@H]3C)nc3nncn3c2n1C[C@@H]1CCCO1 [Example 119, 4-((2S,5R)-2,5-dimethyl-4-((R)-2-methyl-1-(4-(trifluoromethoxy)phenyl)propyl)piperazin-1-yl)-2-methyl-1-(((S)-tetrahydrofuran-2-yl)methyl)-1H-[1,2,4]triazolo[3,4-b]purine]	≤ 20	≤ 20
Cc1nc2c(N3C[C@@H](C)N(C(c4cc(F)c(C(F)(F)F)cc4F)C4CC(F)(F)C4)C[C@@H]3C)nc3nncn3c2n1C[C@@H]1CCCO1 (stereo partly drawn) [Example 56, 4-((2S,5R)-4-((2,5-Difluoro-4-(trifluoromethyl)phenyl)(3,3-difluorocyclobutyl)methyl)-2,5-dimethylpiperazin-1-yl)-2-methyl-1-(((S)-tetrahydrofuran-2-yl)methyl)-1H-[1,2,4]triazolo[3,4-b]purine]	≤ 20	≤ 20
C[C@@H]1CN(c2nc3nncn3c3c2ncn3CCN(C)C)[C@@H](C)CN1C(c1ccc(Br)cc1)c1ccc(Br)cc1 [Example 109, 2-(4-((2S,5R)-4-(Bis(4-bromophenyl)methyl)-2,5-dimethylpiperazin-1-yl)-1H-[1,2,4]triazolo[3,4-b]purin-1-yl)-N,N-dimethylethan-1-amine]	≤ 20	≤ 20
Cc1cc(C(C2CC(F)(F)C2)N2C[C@H](C)N(c3nc4nncn4c4c3nc(C)n4C[C@@H]3CCCO3)C[C@H]2C)ccc1C(F)(F)F (stereo partly drawn) [Example 55, 4-((2S,5R)-4-((3,3-Difluorocyclobutyl)(3-methyl-4-(trifluoromethyl)phenyl)methyl)-2,5-dimethylpiperazin-1-yl)-2-methyl-1-(((S)-tetrahydrofuran-2-yl)methyl)-1H-[1,2,4]triazolo[3,4-b]purine]	≤ 20	≤ 20
Cc1nc2c(N3C[C@@H](C)N([C@H](c4ccc(Cl)c(Cl)c4)C4CC(F)(F)C4)C[C@@H]3C)nc3nncn3c2n1C[C@@H]1CCCO1 [Example 48, 4-((2S,5R)-4-((S)-(3,4-Dichlorophenyl)(3,3-difluorocyclobutyl)methyl)-2,5-dimethylpiperazin-1-yl)-2-methyl-1-(((S)-tetrahydrofuran-2-yl)methyl)-1H-[1,2,4]triazolo[3,4-b]purine]	≤ 20	≤ 20
Cc1nc2c(N3C[C@@H](C)N([C@@H](c4cccc(F)c4)C(C)C)C[C@@H]3C)nc3nncn3c2n1C[C@@H]1CCCO1 [Example 95, 4-((2S,5R)-4-((R)-1-(3-fluorophenyl)-2-methylpropyl)-2,5-dimethylpiperazin-1-yl)-2-methyl-1-(((S)-tetrahydrofuran-2-yl)methyl)-1H-[1,2,4]triazolo[3,4-b]purine]	≤ 20	≤ 20
